Experimental data published in patent US20260000655A1, “PHARMACEUTICAL COMPOSITION FOR USE IN PREVENTION OR TREATMENT OF LIFESTYLE-RELATED DISEASE” (priority 2022, published 2026).

Columns and labels:
[1] = tested on: myotube cell model L6-GLUT4myc, liver cell model HepG2 cells, adipocyte model 3T3-L1; assay: Glucose uptake (2-deoxyglucose) into cells; assay type: cell-based, rat, human, mouse; conditions: HPH-15 10 μM or 50 μM vs metformin 2 mM; 24 hours; 2-deoxyglucose 2 mM, 20 minutes
Experimental: The uptake of glucose into cells by HPH-15 was examined using the myotube cell model L6-GLUT4myc, the liver cell model HepG2 cells, and the adipocyte model 3T3-L1.
The myotube cell model L6-GLUT4myc, the liver cell model HepG2 cells, and the adipocyte model 3T3-L1 used in Example 1 were each seeded onto a 24-well plate (1×10^5 cells/well, […] of culture liquid) and cultured overnight. Then, a DMSO solution (1%) containing HPH-15 (final concentration: 10 μM or 50 μM), metformin (final concentration: 2 mM), or insulin (final concentration: 100 nM) was added to the medium, and the cells were further cultured for 24 hours. As a control, only DMSO solution (1%) was added, and the cells were cultured for 24 hours in the same manner. Next, the cells were washed with KRPH buffer (containing 2% BSA) and cultured in the presence of 2-deoxyglucose (final concentration: 2 mM, FUJIFILM Wako Pure Chemical Corp.) for 20 minutes at 37° C. The uptake of 2-deoxyglucose was stopped by washing the cells with cold PBS, and the amount of glucose taken up into the cells was measured using a Glucose Cellular Uptake Measurement Kit (Cosmo Bio).

[2] = tested on: myotube cell model L6-GLUT4myc, liver cell model HepG2 cells, adipocyte model 3T3-L1; assay: Production of lactic acid in cells; assay type: cell-based, rat, human, mouse; conditions: HPH-15 10 μM or 50 μM vs metformin 2 mM; 24 hours
Experimental: There is a concern that a therapeutic drug of diabetes may cause lactic acidosis due to the production of lactic acid, requiring caution, especially for patients with chronic renal failure or the elderly. Therefore, the production of lactic acid when HPH-15 was used was examined.
The myotube cell model L6-GLUT4myc, the liver cell model HepG2 cells, and the adipocyte model 3T3-L1 used in Example 1 were each seeded onto a 24-well plate (1×10^5 cells/well, […] of culture liquid) and cultured overnight. Then, a DMSO solution (1%) containing HPH-15 (final concentration: 10 μM or 50 μM) or metformin (final concentration: 2 mM) was added to the medium, and the cells were further cultured for 24 hours. As a control, only DMSO solution (1%) was added, and the cells were cultured for 24 hours in the same manner. Next, the amount of lactic acid accumulated in the cells was measured using the Lactate Assay Kit-WST (Dojindo Laboratories).

[3] = tested on: GLUT4 (glucose transporter type 4); assay: Promotion of GLUT4 membrane translocation in L6-GLUT4myc; assay type: cell-based, rat; conditions: HPH-15 10 μM (1/200th of metformin 2 mM; insulin 100 nM), 24 hours
Experimental: GLUT4 (glucose transporter type 4) is involved in the uptake of glucose into cells. Thus, the relationship between HPH-15 and the membrane translocation of GLUT4 was examined using the myotube cell model L6-GLUT4myc.
The myotube cell model L6-GLUT4myc cells used in Example 1 were seeded onto a 24-well plate (1×10^5 cells/well, […] of culture liquid) and cultured overnight. Then, a DMSO solution (1%) containing HPH-15 (final concentration: 10 μM), metformin (final concentration: 2 mM), or insulin (final concentration: 100 nM) was added to the medium, and the cells were further cultured for 24 hours. As a control, only DMSO solution (1%) was added, and the cells were cultured for 24 hours in the same manner. Next, each cell was fixed for 20 minutes with a 3% paraformaldehyde solution (Tokyo Chemical Industry Co., Ltd.). The reaction was stopped with an 1% glycine solution (Merck KGaA), and blocking was performed for 15 minutes using a PBS solution containing 5% goat serum (FUJIFILM Wako Pure Chemical Corp.). […] Detection was performed using OPD reagent (o-phenylenediamine dihydrochloride: FUJIFILM Wako Pure Chemical Corp.), and the amount of GLUT4 was evaluated by measuring absorbance (492 nm).

[4] = tested on: high-fat diet-induced obesity model mice; assay: Glucose loading test in mouse; assay type: in vivo; conditions: HPH-15 10 mg/kg or 100 mg/kg orally, 28 days; glucose 0.5 g/kg intraperitoneally; compared to olive oil
Experimental: The effect of HPH-15 on the change in blood glucose levels in the presence of glucose was examined using mice.
High-fat diet-induced obesity model mice were prepared in the same manner as in Example 7. Then, HPH-15 (10 mg/kg or 100 mg/kg, […]) dissolved in olive oil or metformin (300 mg/kg, […]) was orally administered once a day for 28 days. Olive oil alone was administered as a control. After 28 days of administration of each, glucose was intraperitoneally administered (0.5 g/kg) to the high-fat diet-induced obesity model mice, and blood glucose levels (mg/dl) were measured at 0, 15, 30, 60, 90, and 120 minutes after administration using a blood glucose meter Glutest Aqua (Sanwa Kagaku Kenkyusho Co., Ltd.).

[5] = tested on: high-fat diet-induced obesity model mice; assay: Sirius Red staining and collagen amount in mouse tissue; assay type: in vivo; conditions: HPH-15 10 mg/kg or 100 mg/kg, metformin 300 mg/kg, orally 28 days, Western blotting
Experimental: High-fat diet-induced obesity model mice were prepared in the same manner as in Example 7. Then, HPH-15 (10 mg/kg or 100 mg/kg, […]) dissolved in olive oil or metformin (300 mg/kg, […]) was orally administered once a day for 28 days. Olive oil alone was administered as a control. After 28 days of administration of each, the liver and the epididymal fat of the high-fat diet-induced obesity model mice were stained with Sirius Red and observed using a microscope.
Further, high-fat diet-induced obesity model mice were prepared in the same manner as in Example 7. Then, HPH-15 (10 mg/kg or 100 mg/kg, […]) dissolved in olive oil or metformin (300 mg/kg, […]) was orally administered once a day for 28 days. Olive oil alone was administered as a control. After 28 days of administration of each, equal amounts (50 mg) of tissue pieces were collected from the liver and epididymal adipose tissues of the high-fat diet-induced obesity model mice, transferred to 1.5 mL Eppendorf tubes, and washed twice with PBS. After washing, the tissue pieces were transferred to BIOMASHER II, […] of RIPA buffer was added, and the tissue pieces were homogenized on ice. After homogenization, the tissue pieces were centrifuged (10,000 rpm, 4° C., 5 min) and the supernatant was obtained as a protein solution. The concentration of the proteins thus obtained was corrected based on the protein concentration measured by the BCA method using bicinchoninic acid (BCA), thereby preparing samples for Western blotting. Western blotting was quantified using ImageJ to calculate the amount of collagen.

Structure (SMILES): CC(C)(C)SCCNC(=S)c1cccc(C(=S)NCCSC(C)(C)C)n1 [HPH-15]
- glucose uptake amount [1]: increased the glucose uptake amount to the same extent as or to a greater extent than metformin
- production of lactic acid [2]: equal to or less than that by metformin
- amount of GLUT4 localized in the membrane [3]: promoted membrane translocation of GLUT4 to the same extent as metformin or insulin
- glucose metabolism (blood glucose levels, IAUC) after glucose loading [4]: significantly improved
- amount of collagen in the epididymal adipose tissue [5]: strongly reduced
- amount of collagen in the liver tissue [5]: strongly reduced
